According to US7635703B2, “Imidazole substituted pyrazole kinase inhibitors” (Janssen Pharmaceutica N.V., priority 2006, dated 2009):

Experiments:
[1] = target: T1, human CDK1 catalytic subunit and cyclin B (Homo sapiens, UniProt P06493); experiment: CDK1 screening assay (33P-ATP FlashPlate); format: biochemical; details: 10 μM ATP, 1 hr at 30° C.
T1 construct: purchased New England Biolabs, Beverly, Mass; 6020; host or cells: insect cells
Description: (§1) A kinase reaction mixture was prepared containing 50 mM Tris-HCl pH=8, 10 mM MgCl2, 0.1 mM […], 1 mM DTT, 10 μM ATP, 0.025 μM biotinylated histone-H1 peptide substrate and 0.2 μCuries per well ^33P-γ-ATP (2000-3000 Ci/mmol). 70 μL of the kinase reaction mixture was dispensed into the well of a streptavidin coated FlashPlate™ (Cat. # SMP103, NEN, Boston, Mass.).
(§2) Test compound stock in 100% DMSO (1 μL) was added to the wells resulting in a final concentration of 1% DMSO in the reaction with a 100 μL final reaction volume. Each enzyme was diluted in 50 mM Tris-HCl pH=8.0, 0.1% BSA and 30 μL was added to each well to initiate the reaction. The reaction was incubated for one hour at 30° C. At the end of the 1 hr incubation, the reaction was terminated by aspirating the mixture from the plate and washing the wells twice with PBS containing 100 mM EDTA. The biotinylated peptide substrate became immobilized on the Flashplate™ and the incorporation of ^33P-γ-ATP was measured by reading the plate on a scintillation counter. Inhibition of the enzymatic activity was measured by observing a reduced amount of ^33P-γ-ATP incorporated into the immobilized peptide.
The CDK1 enzyme was isolated from insect cells expressing both the human CDK1 catalytic subunit (Accession number NM_001786) and its positive regulatory subunit cyclin B (New England Biolabs, Beverly, Mass.; Cat. #6020). The assay used 30 ng of the N-terminal biotinylated peptide biotin-[…]-amide (Cyclin dependent kinase 1) per well.
(§3) A maximum and minimum signal for the assay was determined on each plate. The percent inhibition of a test compound was calculated according to the formula: […]
For a series of test concentrations, the IC50 was derived by graphing percent inhibition against the log of the concentrations tested for a given compound with results shown in Table 1.

[2] = target: T2, HER2 (GST/HIS6 fusion, amino acids 679 to 1255 of HER-2) (Homo sapiens, UniProt P04626); experiment: HER2 screening assay (33P-ATP FlashPlate); format: biochemical; details: 10 μM ATP, 1 hr at 30° C.
T2 construct: GST (Glutathione-S-Transferase) (N); HIS6 (N); thrombin cleavage site (N); purchased Proqinase, Freiburg, Germany
Description: as §1, §2
The HER2 construct consisted of a fusion of GST (Glutathione-S-Transferase), HIS6 Thrombin and the nucleotides encoding amino acids 679 to 1255 of HER-2 (Accession number M11730) (Proqinase, Freiburg, Germany). The assay used 200 ng of the N-terminal biotinylated peptide biotin-poly(GT) 4:1 (HER2) per well.
as §3

[3] = target: T3, rat VEGF-R2 kinase domain (polyhistidine fusion, amino acids 786 to 1343) (Rattus norvegicus, UniProt O08775); experiment: VEGFR2 screening assay (33P-ATP FlashPlate); format: biochemical; details: 10 μM ATP, 1 hr at 30° C.
T3 construct: amino acids 786 to 1343 of the rat VEGF-R2 kinase domain; polyhistidine (N)
Description: (§4) 70 μL of the kinase reaction mixture was dispensed into the well of a streptavidin coated FlashPlate™ (Cat. # SMP103, NEN, Boston, Mass.).
as §2
The assay used 150 ng of the N-terminal biotinylated peptide biotin-[…]-amide (VEGF-R2) per well.
as §3

[4] = target: T4, murine Aurora-A (polyhistidine fusion, full length) (Mus musculus, UniProt P97477); experiment: Aurora-A screening assay (33P-ATP FlashPlate); format: biochemical; details: 10 μM ATP, 1 hr at 30° C.
T4 construct: followed by the full length protein encoding the murine Aurora-A; polyhistidine (N); made in house; host or cells: sf9 insect cells
T4 sequence (P97477 1-395): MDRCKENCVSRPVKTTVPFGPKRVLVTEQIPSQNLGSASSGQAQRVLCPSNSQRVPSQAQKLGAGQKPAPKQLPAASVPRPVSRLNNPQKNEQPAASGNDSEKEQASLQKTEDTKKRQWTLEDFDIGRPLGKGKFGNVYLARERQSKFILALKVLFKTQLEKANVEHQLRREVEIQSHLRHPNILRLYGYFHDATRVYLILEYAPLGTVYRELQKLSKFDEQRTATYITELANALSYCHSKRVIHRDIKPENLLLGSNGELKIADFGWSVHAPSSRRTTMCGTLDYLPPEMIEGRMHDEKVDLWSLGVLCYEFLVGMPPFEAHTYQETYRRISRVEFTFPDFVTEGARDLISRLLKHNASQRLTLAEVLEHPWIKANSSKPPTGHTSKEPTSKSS
Description: as §4, §2
Aurora-A is a fusion protein containing a polyhistidine tag at the N terminus followed by the full length protein encoding the murine Aurora-A (Accession number GB BC014711) expressed and purified from sf9 insect cells. The assay used 400 ng of the N-terminal biotinylated peptide biotin-[…]-amide (Aurora-A) per well.
as §3

A375 malignant melanoma = experiment: Cell proliferation inhibition assay (14C-thymidine incorporation), A375; format: cell-based; details: Homo sapiens, A-375, A375 cells
Source text: (§5) The ability of a test compound to inhibit unregulated cell proliferation may be determined by measuring incorporation of ^14C-labelled thymidine into newly synthesized DNA within cell lines derived from carcinomas originating from several tissues. Accordingly, the anti-proliferative effect of a compound on cells with a variety of phenotypes may be determined.
(§6) Carcinoma cell lines include those such as HeLa cervical adenocarcinoma (American Type Culture Collection (ATCC), Virginia, Cat. #CCL-2), A375 malignant melanoma (ATCC CRL-1619), and HCT-116 colon carcinoma (CCL-247).
(§7) The carcinoma cells are trypsinized and counted. The cells (3000-8000 count) are added to each well of a 96-well CytoStar tissue culture treated scintillating microplate (Amersham #RPNQ0160) in complete medium (100 μL) and the plate is then incubated in complete medium for 24 hrs at 37° C. in an inert atmosphere containing 5% CO2. Test compound (1 μL) in 100% DMSO is added to the plate test-wells with DMSO only added to control-wells. The plate is incubated in complete medium for a second 24 hr period at 37° C. in an atmosphere containing 5% CO2.
(§8) An aliquot of a solution of Methyl ^14C-thymidine (56 mC/mmol) (NEN #NEC568 or Amersham #CFA532) and complete medium (20 uL to provide 0.2 μCi/well) is then added to each well and the plate is incubated for a third 24 hr period at 37° C. in an atmosphere containing 5% CO2. The plate contents are then discarded, the plate is washed twice with PBS (200 μL) and then PBS (200 μL) is added to each well. The plate is sealed and the degree of methyl ^14C-thymidine incorporation is quantified on a Packard Top Count.
as §3
(§9) For a series of test concentrations, the IC50 was derived by graphing percent inhibition against the log of the concentrations tested for a given compound with results shown in Table 3.

HCT-116 colon carcinoma = experiment: Cell proliferation inhibition assay (14C-thymidine incorporation), HCT-116; format: cell-based; details: Homo sapiens, HCT-116 cells
Source text: as §5, §6, §7, §8, §3, §9

[5] = system: HeLa cervical adenocarcinoma; experiment: Cell proliferation inhibition assay (14C-thymidine incorporation), HeLa; format: cell-based; details: Homo sapiens, HeLa cells
Source text: as §5, §6, §7, §8, §3, §9

T2 sequence (P04626 679-1255): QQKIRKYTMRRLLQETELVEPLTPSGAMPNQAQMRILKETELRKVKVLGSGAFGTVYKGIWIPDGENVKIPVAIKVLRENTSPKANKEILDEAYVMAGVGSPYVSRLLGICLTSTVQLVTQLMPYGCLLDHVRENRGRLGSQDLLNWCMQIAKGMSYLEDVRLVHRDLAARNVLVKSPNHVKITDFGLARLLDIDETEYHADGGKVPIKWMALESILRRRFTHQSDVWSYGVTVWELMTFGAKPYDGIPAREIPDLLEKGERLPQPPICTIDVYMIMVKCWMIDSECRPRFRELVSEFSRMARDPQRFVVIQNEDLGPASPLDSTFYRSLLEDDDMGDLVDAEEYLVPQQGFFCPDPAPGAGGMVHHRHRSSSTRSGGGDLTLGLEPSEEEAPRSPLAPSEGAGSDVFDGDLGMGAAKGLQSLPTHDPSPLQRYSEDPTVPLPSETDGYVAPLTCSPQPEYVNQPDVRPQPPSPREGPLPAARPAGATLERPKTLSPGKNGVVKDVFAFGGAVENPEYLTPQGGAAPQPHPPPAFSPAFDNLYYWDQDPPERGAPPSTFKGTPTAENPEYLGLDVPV
T1 sequence (P06493 whole entry): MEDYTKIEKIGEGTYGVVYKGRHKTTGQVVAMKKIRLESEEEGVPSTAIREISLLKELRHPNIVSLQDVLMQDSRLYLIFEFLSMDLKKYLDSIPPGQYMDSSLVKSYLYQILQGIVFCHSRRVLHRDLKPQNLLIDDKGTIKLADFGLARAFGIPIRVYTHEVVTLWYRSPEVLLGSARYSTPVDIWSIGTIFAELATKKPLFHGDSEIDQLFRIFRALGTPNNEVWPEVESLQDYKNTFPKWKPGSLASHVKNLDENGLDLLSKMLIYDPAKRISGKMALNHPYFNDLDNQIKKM
T1 sequence (P14635 whole entry partner): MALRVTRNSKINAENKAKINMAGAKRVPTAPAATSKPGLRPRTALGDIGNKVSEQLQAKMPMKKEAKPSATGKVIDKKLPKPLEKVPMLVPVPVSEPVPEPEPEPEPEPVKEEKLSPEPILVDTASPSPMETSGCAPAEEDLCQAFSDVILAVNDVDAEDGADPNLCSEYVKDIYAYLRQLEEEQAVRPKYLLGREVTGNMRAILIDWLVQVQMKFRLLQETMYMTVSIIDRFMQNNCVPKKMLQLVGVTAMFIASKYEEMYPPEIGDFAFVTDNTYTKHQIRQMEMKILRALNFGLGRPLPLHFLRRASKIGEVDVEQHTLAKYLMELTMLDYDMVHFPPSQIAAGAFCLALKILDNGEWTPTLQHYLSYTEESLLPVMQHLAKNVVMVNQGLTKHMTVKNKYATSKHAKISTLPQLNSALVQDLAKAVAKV
T3 sequence (O08775 786-1343): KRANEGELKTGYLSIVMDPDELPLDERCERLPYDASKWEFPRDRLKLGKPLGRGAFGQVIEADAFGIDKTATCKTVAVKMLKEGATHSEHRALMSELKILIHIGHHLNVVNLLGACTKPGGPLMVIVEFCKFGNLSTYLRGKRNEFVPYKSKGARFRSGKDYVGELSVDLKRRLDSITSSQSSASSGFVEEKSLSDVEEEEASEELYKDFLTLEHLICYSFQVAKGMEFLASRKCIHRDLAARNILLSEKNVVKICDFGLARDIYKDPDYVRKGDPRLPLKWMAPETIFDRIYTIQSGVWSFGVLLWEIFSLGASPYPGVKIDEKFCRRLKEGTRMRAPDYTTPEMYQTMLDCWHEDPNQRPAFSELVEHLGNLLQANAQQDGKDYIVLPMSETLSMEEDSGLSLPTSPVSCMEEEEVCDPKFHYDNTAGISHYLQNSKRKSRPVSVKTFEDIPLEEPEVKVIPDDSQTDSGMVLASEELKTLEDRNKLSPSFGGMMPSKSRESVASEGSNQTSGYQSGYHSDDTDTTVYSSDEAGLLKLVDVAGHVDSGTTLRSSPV

Row | IC50 [1] [µM] | IC50 [2] [µM] | IC50 [3] [µM] | IC50 [4] [µM] | IC50 (A375 malignant melanoma) [µM] | IC50 (HCT-116 colon carcinoma) [µM] | IC50 [5] [µM] | Compound
1 | 0.018 | > 100 | ~10 | > 10 | 7.44 | 1.75 | 3.18 | CCNCc1cncc(/C=C/c2c[nH]nc2-c2nc(C(F)(F)F)c[nH]2)c1 [Cpd 1, ethyl-(5-{2-[3-(4-trifluoromethyl-1H-imidazol-2-yl)-1H-pyrazol-4-yl]-vinyl}-pyridin-3-ylmethyl)-amine]
2 | 0.483 | > 100 | 29.4 | 0.117 | 46.5 | 23.8 | > 10 | FC(F)(F)c1c[nH]c(-c2n[nH]cc2/C=C/c2cccnc2)n1 [Cpd 2, 3-{2-[3-(4-trifluoromethyl-1H-imidazol-2-yl)-1H-pyrazol-4-yl]-vinyl}-pyridine]
3 | 0.704 | > 100 | > 10 | > 10 | > 10 | 70.7 | > 10 | N#Cc1c[nH]c(-c2n[nH]cc2/C=C/c2cccnc2)n1 [Cpd 3, 2-[4-(2-pyridin-3-yl-vinyl)-1H-pyrazol-3-yl]-1H-imidazole-4-carbonitrile]
4 | 0.113 | – | 3.06 | 0.297 | 5.59 | 2.92 | 3.58 | FC(F)(F)c1cnc(-c2n[nH]cc2C=Cc2cncc3ccccc23)[nH]1 [Cpd 4, 4-{2-[3-(4-trifluoromethyl-1H-imidazol-2-yl)-1H-pyrazol-4-yl]-vinyl}-isoquinoline]
